In patent US20030216471A1, “Retinoid formulations for aerosolization and inhalation” (priority 2003, published 2003):
Entries after “also recorded” stand apart in the source; their conditions may differ. Marks after values point to notes of the source that are not given here.

Tests used:
[1] = test system: second aerodigestive tumors; conditions: oral, 1-2 mg/kg/day, previously treated head-and-neck cancer patients; cited from earlier work
[2] = test system: RAR γ; experiment: RAR induction in lungs of A/J mice exposed to isotretinoin aerosol, RAR γ; assay type: in vivo, mouse; conditions: inhaled mid dose, urethane-treated A/J mice
Method: (§1) Antibodies: Polyclonal antibodies to RARα, β and γ (Santa Cruz Biotechnology Inc., San Francisco, Calif.) were used with a BM Chemiluminescence Western Blotting Kit (Mouse/Rabbit) (Boehringer Mannheim Corporation, Indianapolis).
(§2) Experimental Design: Five lungs each from the urethane-treated vehicle, low dose, and mid dose animals were snap frozen in liquid nitrogen and stored at −70° C. for determination of RARs α, β and γ by Western Blot Analysis. […] The lungs were homogenized and the RARs were determined by standard Western Blotting (21, 22).
(§3) Samples: Lung tissue was collected, frozen on dry ice and kept at −70° C. until used. A 500 mg portion was diced in small pieces and homogenized in 300 μl of cold PBS using a hand held homogenizer for 2-3 min. Samples were centrifuged at 500 rpm for 5 min or until the supernatant was clear. The pellet was suspended in 400 μl of cold Buffer A [2 μl 0.5 M EDTA, 10 μl mM EGTA, 50 μl 100 mM PMSF, 10 μl 1M DTT, 10 ml (10 mM HEPES pH 7.9+10 mM KCl)], and left at ice temperature for 15 min. A 25 μl volume of 10% solution of NP−40 was added and the samples were mixed in a vortex vigorously for 10 sec. Samples were centrifuged at 14,000 rpm for 1 min at 4° C. and the pellet was treated once more in this fashion. […]

[3] = test system: A/J mice; experiment: Lung carcinogenesis model: carcinogen-treated A/J mice exposed to isotretinoin aerosols; assay type: in vivo, mouse; conditions: for Efficacy (Carcinogen): 10-16 weeks; for non-significant reduction of tumor multiplicity: low dose; for reduction in multiplicity of tumor nodules: mid isotretinoin dose
Text: The A/J mouse is a well-established animal model for preclinical chemoprevention studies. This strain has a hereditary predisposition for lung cancer, the so-called pulmonary adenoma susceptibility (Pas) genes. A strong candidate for one of these genes, Pas-1, is the K-ras protooncogene. Carcinogenesis in this model with NNK as the inciting agent has been studied so that the times required to develop hyperplastic areas, adenomas, and carcinomas are well known. In addition, the timing of molecular changes associated with carcinogenesis has been studied and are similar to those in humans. In both species, K-ras mutations are common early events.
Powdered isotretinoin was dissolved in 100% ethanol plus 0.1% α-tocopherol and 0.1% ascorbyl palmitate to give concentrations of isotretinoin ranging from 0.1 to 10 mg/ml. The formulations were prepared monthly. The solutions were protected from light and stored at −5° C. until use. Ultraviolet-visible spectrophotometric verification of the formulated test article concentration was performed on all batches in advance of inhalation treatments with the test article solution. Only formulations within ±10% of the targeted concentration were used on study.
Within 24 h of the last inhalation exposure, animals were euthanized by intraperitoneal injection of pentobarbital and their lungs were removed and fixed in Bouin's solution or flash frozen for RAR determination. The lungs were evaluated in a blinded fashion so that neither carcinogen nor isotretinoin dose levels were known to the evaluator, who visually counted hyperplastic areas and adenomas on the lung pleural surface as previously described. The significance of the differences between the mean tumor incidence of the treatment and the control groups was determined using the Mann-Whitney Rank Sum test (Statmost TM, DataMost Corp., Sandy, Utah).

[4] = test system: RAR γ; experiment: Western blot of rat lung, inhaled 13-cis RA (experiment A), RAR γ; assay type: in vivo; conditions: for upregulation of lung tissue RAR (third named, γ): daily deposited dose 6.4 mg/kg/day
Method: The experimental groups were as follows (Table 4):1. Vehicle (10/9 mix of PEG 300 and Ethanol with 0.5% of ascorbic acid and 0.5% phosphatidyl choline) control, day 1: rats (19) inhaled vehicle for 2 hr for one day; 2. […] Vehicle control, day 28: rats (16) inhaled vehicle as for group 1 for a period of 28 days; 5.
Tissues were collected, frozen in dry ice and kept at −70° C. until used. 500 mg aliquots were diced in small pieces and homogenized in 300 μl of cold PBS, using the hand held homogenizer for 2˜3 minutes. Sample and washes were centrifuged at 5000×g for 20 minutes. The pellet was suspended in 400 μl of ice-cold Buffer A [2 μl 0.5M EDTA, 10 μl 100 mM EGTA, 50 μl 100MM PMSF, 10 μl 1M DTT, 10 ml (10 mM HEPES pH 7.9+10 mM KCl)], and left at ice temperature for 15 minutes. 25 μl of 10% solution of NP-40 was added and samples were mixed in a vortex vigorously for 10 seconds. Samples were centrifuged at 14,000×g for 1 minute at 4° C. and the pellet treated once more in this fashion (resuspended etc.). The supernatant was removed and 100 μl of ice-cold Buffer C [4 μl 0.5M EDTA, 20 μl 100 mM EGTA, 20 μl 100 mM PMSF, 2 μl 1M DTT, 2 ml (20 mM HEPES pH 7.9+0.4M NaCl)] was added. Pellets were resuspended by tapping gently on the bottom of the Eppendorf tubes. Samples were rocked vigorously in a bucket of ice on an orbital shaker for 30 minutes. Samples were centrifuged at 14,000×g for 5 minutes at 4° C.
Samples were prepared by adding one part of the Sample Buffer to one part of the sample and mixing well. Samples were heated at 95° C. for 5 minutes to induce denaturation. 5 μl of Rainbow Standard and 5 μl of Biotinylated Molecular Marker were added to parallel wells. 20 μg protein per sample was loaded in each lane. Electrophoresis was performed with voltage set at 125V for about 1˜1.5 hours. Gel transfer was executed at 25V for 2 hours. The membrane was stained in Ponceau S. for 5 minutes and destained with one wash of 5% acetic acid. The membrane was then washed in TBS solution until the staining disappeared. […]

[5] = test system: RAR α; experiment: RAR induction in lungs of A/J mice exposed to isotretinoin aerosol, RAR α; assay type: in vivo, mouse; conditions: inhaled mid dose, urethane-treated A/J mice
Method: as §1, §2, §3

[6] = BaP, weekly pulmonary dose 0.25 mg/kg
[7] = BaP, weekly pulmonary dose 4.0 mg/kg
[8] = NNK and BaP, A/J mice, inhalation
[9] = NNK, weekly pulmonary dose 0.25 mg/kg
[10] = NNK, weekly pulmonary dose 4.0 mg/kg
[11] = Urethane, weekly pulmonary dose 0.25 mg/kg
[12] = Urethane, weekly pulmonary dose 4.0 mg/kg

CC1=C(/C=C/C(C)=C/C=C/C(C)=C\C(=O)O)C(C)(C)CCC1 [13-cis RA, 13-cis-Retinoic Acid]
protection against second aerodigestive tumors [1]: significantly protective | upregulation of lung tissue RAR γ over solvent (vehicle) [2]: 3.7 fold | Efficacy (Carcinogen) ([3]; 0.24 mg/kg weekly total deposited (inh), NNK, BaP, Maybe = trend for efficacy): Maybe | Efficacy (Carcinogen) ([3]; 0.24 mg/kg weekly total deposited (inh), urethane): No | Efficacy (Carcinogen) ([3]; 1.6 mg/kg weekly total deposited (inh), NNK, BaP): Yes | Efficacy (Carcinogen) ([3]; 1.6 mg/kg weekly total deposited (inh), urethane): No | Efficacy (Carcinogen) ([3]; 24.9 mg/kg weekly total deposited (inh), urethane, NNK, BaP): Yes (urethane, NNK, BaP) | Hyperplastic Areas Per Lung Set (Mean ± SE) ([3]; BaP, weekly pulmonary dose 0.04 mg/kg, vehicle control 0.2): 0.8 ± 0.3 | Tumors Per Lung Set (Mean ± SE) ([3]; BaP, weekly pulmonary dose 0.04 mg/kg, vehicle control 9.0): 6.4 ± 0.7^f | Total Lesions Per Lung Set (Mean ± SE) ([3]; BaP, weekly pulmonary dose 0.04 mg/kg, vehicle control 9.2): 7.2 ± 0.8 | Hyperplastic Areas Per Lung Set (Mean ± SE) [3, 6]: 3.2 ± 0.4^d | Total Lesions Per Lung Set (Mean ± SE) [3, 6]: 6.1 ± 0.5^b | Tumors Per Lung Set (Mean ± SE) [3, 6]: 3.0 ± 0.5^d | Hyperplastic Areas Per Lung Set (Mean ± SE) [3, 7]: 3.3 ± 0.9^d | Total Lesions Per Lung Set (Mean ± SE) [3, 7]: 5.2 ± 1.0^b | Tumors Per Lung Set (Mean ± SE) [3, 7]: 1.8 ± 0.5^d | weekly pulmonary dose with evidence of efficacy (as low as) [3, 8]: 0.25 mg/kg | weekly pulmonary dose with suggested efficacy [3, 8]: 0.04 mg/kg | Hyperplastic Areas Per Lung Set (Mean ± SE) ([3]; NNK, weekly pulmonary dose 0.04 mg/kg, vehicle control 1.3): 2.0 ± 0.4 | Tumors Per Lung Set (Mean ± SE) ([3]; NNK, weekly pulmonary dose 0.04 mg/kg, vehicle control 2.5): 2.1 ± 0.3^e | Total Lesions Per Lung Set (Mean ± SE) ([3]; NNK, weekly pulmonary dose 0.04 mg/kg, vehicle control 3.8): 4.1 ± 0.6 | Hyperplastic Areas Per Lung Set (Mean ± SE) [3, 9]: 3.3 ± 0.3^d | Total Lesions Per Lung Set (Mean ± SE) [3, 9]: 3.6 ± 0.3 | Tumors Per Lung Set (Mean ± SE) [3, 9]: 0.3 ± 0.2^d | Hyperplastic Areas Per Lung Set (Mean ± SE) [3, 10]: 3.8 ± 0.6^c | Total Lesions Per Lung Set (Mean ± SE) [3, 10]: 4.5 ± 0.7 | Tumors Per Lung Set (Mean ± SE) [3, 10]: 0.8 ± 0.3^d | Hyperplastic Areas Per Lung Set (Mean ± SE) ([3]; Urethane, weekly pulmonary dose 0.04 mg/kg, vehicle control 4.6): 3.6 ± 1.1 | Tumors Per Lung Set (Mean ± SE) ([3]; Urethane, weekly pulmonary dose 0.04 mg/kg, vehicle control 24.2): 25.7 ± 1.7 | Total Lesions Per Lung Set (Mean ± SE) ([3]; Urethane, weekly pulmonary dose 0.04 mg/kg, vehicle control 29.2): 29.3 ± 1.5 | Hyperplastic Areas Per Lung Set (Mean ± SE) [3, 11]: 5.9 ± 1.2 | Total Lesions Per Lung Set (Mean ± SE) [3, 11]: 32.2 ± 2.4 | Tumors Per Lung Set (Mean ± SE) [3, 11]: 26.4 ± 2.1 | Hyperplastic Areas Per Lung Set (Mean ± SE) [3, 12]: 5.3 ± 1.3 | Total Lesions Per Lung Set (Mean ± SE) [3, 12]: 15.9 ± 1.9^d | Tumors Per Lung Set (Mean ± SE) [3, 12]: 10.6 ± 1.2^d | effect of treatment on numbers of tumors ([3]; low (lowest) isotretinoin dose): not affected by treatment at the 95% confidence level; also recorded: not significantly effective | non-significant reduction of tumor multiplicity ([3]; BaP-treated mice (p<0.13)): 30% | non-significant reduction of tumor multiplicity ([3]; NNK-treated mice (p<0.30)): 16% | reduction in multiplicity of tumor nodules ([3]; BaP-treated mice): 67% | reduction in multiplicity of tumor nodules ([3]; NNK-treated mice): 88% | induction of lung RAR (third named, γ) ([4]; daily deposited dose 1.9 mg/kg/day, day 28): 8.1 fold | upregulation of lung tissue RAR (third named, γ) ([4]; day 1): 9.7 fold | upregulation of lung tissue RAR (third named, γ) ([4]; day 17): 12.9 fold | upregulation of lung tissue RAR α over solvent (vehicle) [5]: 3.9 fold
